# Values of other authors, collected in patent publication EP1482795B1, “NEW IMMU[…]” (CORIXA CORPORATION, priority 2002, dated 2003).
substance,measurement,setting,value
Monophosphoryl lipid A [MPL® immunostimulant],doses that can be safely administered to humans,,at least 20 µg/kg
same,"dose levels at which increases in temperature, flu-like symptoms, increasing heart rate and modest decreases in blood pressure can occur","humans, some patients",≥ 0.01 mg/kg
